According to US20240000734A1, “PHARMACEUTICAL COMPOSITION HAVING AN ANALGAESIC AND AN ANTIHISTAMINE FOR TREATING RESPIRATORY DISEASES” (LABORATORIOS SILANES S.A. DE C.V., priority 2020, published 2024):

What was measured:
clinical = details: both, human, in vivo, po, 800 mg
[1] = tested on: patients with uncomplicated acute bronchitis; details: cited from earlier work; for Adverse events: P=0.008; for median number of days with cough: oral, placebo 11 days, not statistically significant

Work on `CC(C)Cc1ccc(C(C)C(=O)O)cc1` (racemic) [Ibuprofen, (±)-2-(4-isobutylphenyl) propionic acid] yielded a Cmax (clinical) of 54.6 µg/mL, a Tmax (clinical) of 1.35 ± 0.75 h and an AUC (clinical; AUC0^t) of 185 µg·h/mL. The AUC (clinical; AUC0^∞) was 192 µg·h/mL, the Adverse events [1] was 5% and the “median number of days with cough” value [1] was 9 days.
For `CC1(C)S[C@@H]2[C@H](NC(=O)[C@H](N)c3ccc(O)cc3)C(=O)N2[C@H]1C(=O)O` [amoxicillin], the Adverse events [1] is given as 12% and the “median number of days with cough” value [1] is given as 11 days.
